Reference: patent US20240082296A1, “TREATMENT OF MUSCLE ATROPHY USING DEXTRAN SULFATE” (TX MEDIC AB, priority 2020, published 2024)

Test system: human patients suffering from ALS
Assay: ALSAQ-40 ADL and PM sub-scores in ALS patients (Example 1)
Format: in vivo
Procedure: Dextran sulfate (Tikomed AB, Viken, Sweden, WO 2016/076780) was administered at 2 mg/kg by […] subcutaneous injection once a week for ten weeks to 8 human patients suffering from ALS.
ALSAQ-40 was assessed pre-treatment and weekly thereafter for the 10 treatment weeks and for the visits at the follow-up period.
The ALSAQ-40 sub-scores entitled ‘Activities of Daily Living/Independence’ (ADL) and ‘Physical Mobility’ (PM) reflect the patients' view of their level of physical activity and independence. A falling score reflects improved physical activity.

Substance: dextran sulfate
- decline of ALSAQ-40 ADL sub-score (after 10 weeks of treatment): 18.6%
- decline of ALSAQ-40 PM sub-score (after 10 weeks of treatment): 16%
- ALSAQ-40 PM sub-score (after 10 weeks, pre-treatment 27.2±22.2): 22.7±20.2
- ALSAQ-40 ADL sub-score (after 10 weeks, pre-treatment 58.9±21.4, p<0.05, falling score = improved): 44.4±24.7
